IC50 and EC50 data for twelve molecules are collected here from patent US20230391772A1, “METHODS AND COMPOSITIONS FOR TARGETED PROTEIN DEGRADATION” (Ranok Therapeutics (Hangzhou) Co. Ltd., priority 2020, published 2023).

The target of one assay is T1, HSP90a protein (Homo sapiens, UniProt P07900).
T1 construct: purchased BPS Bioscience 50298
The experiment in a line: HSP90α-binding fluorescent polarization (FP) assay, BODIPY-labeled RNK04010 probe. The following applies: FP competition with RNK04010 (BODIPY-labeled), 5 nM, 300 min at 25° C. The procedure, abridged:
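N-terminal HSP90a construct; tracer 5 nM final (FITC-geldanamycin or BODIPY-RNK04010, a labeled triazolone binder). Compounds 20 μM–5.2 nM, 2.5-fold steps. 25° C, 120 min (FITC) / 300 min (BODIPY). FP readout.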

For assay [1], the system named is NCI-H358 human non-small cell lung cancer. The assay can be described thus: NCI-H358 CCK-8 proliferation assay. Type of assay: cell-based. The note with it: NCI-H358 cells, 72 hr. How it is done: The following cancer cell lines were employed: BT-474 human breast carcinoma (ATCC, #HTB-20); MIA PaCa-2 human pancreatic carcinoma [2 copies KRAS(G12C)](ATCC, #CRL-1420); NCI-H23 human non-small cell lung cancer [1 copy KRAS(G12C)](ATCC, #CRL-5800); NCI-H358 human non-small cell lung cancer [1 copy KRAS(G12C)](ATCC, #CRL-5807); LU65A human lung carcinoma (Pharmaron, Beijing, China). Cell lines were cultured essentially according to ATCC and Pharmaron recommendations.
Cancer Cell Line Proliferation (CCK-8) Assays
3-fold serial dilutions of each test compound were prepared ranging from 20 μM to 1.02 nM.
% Inhibition=100−(D−B)/(S−B)*100%. • S: Absorbance of cells treated with DMSO • D: Absorbance of compound-treated cells • B: Absorbance of medium with DMSO without cells

Assay [2] relates to MIA PaCa-2 human pancreatic carcinoma. The assay can be described thus: MIA PaCa-2 CCK-8 proliferation assay. The format is cell-based. The note with it: Homo sapiens, MIA PaCa-2, 72 h, MIA PaCa-2 cells. The procedure, abridged:
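CCK-8 absorbance readout; % inhibition = 100 − (compound − blank)/(DMSO − blank) × 100, blank = medium + DMSO, no cells. Dose range 20 μM down to 1.02 nM, 3-fold steps. KRAS(G12C) copy number: MIA PaCa-2 2; NCI-H358 1; NCI-H23 1.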

For the next assay, the target named is KRAS(G12C) (Homo sapiens, UniProt P01116, G12C). The experiment in a line: KRAS(G12C)/SOS1 homogeneous time-resolved fluorescence (HTRF) assay. Also noted: purchased Cisbio 63ADK000CB16PEG. The following applies: absence of GTP, 4° C. for 3 hr, read-out: KRAS (G12C) binding. The procedure, abridged: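 Three-hour incubation at 4 °C of 3-fold compound dilutions (lowest 1.02 nM) with KRAS(G12C), SOS1 and detection reagents, GTP absent. Disruption of the KRAS(G12C)/SOS1 complex detected by time-resolved fluorescence.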
Chain of KRAS(G12C) (P01116 1-188 isoform P01116-2 G12C): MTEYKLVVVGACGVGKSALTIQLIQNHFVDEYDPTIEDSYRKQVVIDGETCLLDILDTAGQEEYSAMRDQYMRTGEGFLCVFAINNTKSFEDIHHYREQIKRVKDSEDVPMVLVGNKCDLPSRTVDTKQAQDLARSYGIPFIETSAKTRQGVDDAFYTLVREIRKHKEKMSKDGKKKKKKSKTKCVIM

In turn, `C=CC(=O)N1CCN(c2nc(NCCC(=O)N3CCC(Cc4ccc(-n5c(O)nnc5-c5cc(C(C)C)c(O)cc5O)cc4)CC3)nc3c2CCN(c2cc(O)cc4ccccc24)C3)CC1` [Compound 1, 1-(4-(2-((3-(4-(4-(3-(2,4-dihydroxy-5-isopropylphenyl)-5-hydroxy-4H-1,2,4-triazol-4-yl)benzyl)piperidin-1-yl)-3-oxopropyl)amino)-7-(3-hydroxynaphthalen-1-yl)-5,6,7,8-tetrahydropyrido[3,4-d]pyrimidin-4-yl)piperazin-1-yl)prop-2-en-1-one, trifluoroacetic acid] displayed an IC50 at HSP90a protein of 0.1 to 1 µM. For the same molecule, the EC50 in assay [1] is > 1 µM.
On the same counts, the results for `C=CC(=O)N1CCN(c2nc(NCCC(=O)N3CCN(c4ccc(-n5c(O)nnc5-c5cc(C(C)C)c(O)cc5O)cc4)CC3)nc3c2CCN(c2cc(O)cc4ccccc24)C3)CC1` [Compound 2, 1-(4-(2-((3-(4-(4-(3-(2,4-dihydroxy-5-isopropylphenyl)-5-hydroxy-4H-1,2,4-triazol-4-yl)phenyl)piperazin-1-yl)-3-oxopropyl)amino)-7-(3-hydroxynaphthalen-1-yl)-5,6,7,8-tetrahydropyrido[3,4-d]pyrimidin-4-yl)piperazin-1-yl)prop-2-en-1-one, trifluoroacetic acid] are 0.1 to 1 µM and > 1 µM.
For the molecule `C=CC(=O)N1CCN(c2nc(NCCC(=O)NCCOc3ccc(-n4c(O)nnc4-c4cc(C(C)C)c(O)cc4O)cc3)nc3c2CCN(c2cc(O)cc4ccccc24)C3)CC1` [Compound 3, 3-((4-(4-acryloylpiperazin-1-yl)-7-(3-hydroxynaphthalen-1-yl)-5,6,7,8-tetrahydropyrido[3,4-d]pyrimidin-2-yl)amino)-N-(2-(4-(3-(2,4-dihydroxy-5-isopropylphenyl)-5-hydroxy-4H-1,2,4-triazol-4-yl)phenoxy)ethyl)propanamide, trifluoroacetic acid], the IC50 at HSP90a protein was in the range of 0.1 to 1 µM. In addition, in assay [1], the EC50 is > 1 µM.
On the same counts, the results for `C=CC(=O)N1CCN(c2nc(NCCC(=O)NCCc3ccc(-n4c(O)nnc4-c4cc(C(C)C)c(O)cc4O)cc3)nc3c2CCN(c2cc(O)cc4ccccc24)C3)CC1` [Compound 4, 3-((4-(4-acryloylpiperazin-1-yl)-7-(3-hydroxynaphthalen-1-yl)-5,6,7,8-tetrahydropyrido[3,4-d]pyrimidin-2-yl)amino)-N-(4-(3-(2,4-dihydroxy-5-isopropylphenyl)-5-hydroxy-4H-1,2,4-triazol-4-yl)phenethyl)propanamide, trifluoroacetic acid] are 0.1 to 1 µM and > 1 µM.
On the same counts, the results for `C=CC(=O)N1CCN(c2nc(NCCC(=O)NCCOCCOCCOc3ccc(-n4c(O)nnc4-c4cc(CC)c(O)cc4O)cc3)nc3c2CCN(c2cc(O)cc4ccccc24)C3)CC1` [Compound 5, 3-((4-(4-acryloylpiperazin-1-yl)-7-(3-hydroxynaphthalen-1-yl)-5,6,7,8-tetrahydropyrido[3,4-d]pyrimidin-2-yl)amino)-N-(2-(2-(2-(4-(3-(5-ethyl-2,4-dihydroxyphenyl)-5-hydroxy-4H-1,2,4-triazol-4-yl)phenoxy)ethoxy)ethoxy)ethyl)propanamide, trifluoroacetic acid] are > 1 µM and > 1 µM.
On the same counts, the results for `C=CC(=O)N1CCN(c2nc(NCCC(=O)NCCOCCOc3ccc(-n4c(O)nnc4-c4cc(CC)c(O)cc4O)cc3)nc3c2CCN(c2cc(O)cc4ccccc24)C3)CC1` [Compound 6, 3-((4-(4-acryloylpiperazin-1-yl)-7-(3-hydroxynaphthalen-1-yl)-5,6,7,8-tetrahydropyrido[3,4-d]pyrimidin-2-yl)amino)-N-(2-(2-(4-(3-(5-ethyl-2,4-dihydroxyphenyl)-5-hydroxy-4H-1,2,4-triazol-4-yl)phenoxy)ethoxy)ethyl)propanamide, trifluoroacetic acid] are > 1 µM and > 1 µM.
`C=CC(=O)N1CCN(c2nc(NCCC(=O)NCc3ccc(-n4c(O)nnc4-c4cc(C(C)C)c(O)cc4O)cc3)nc3c2CCN(c2cc(O)cc4ccccc24)C3)CC1` [Compound 7, 3-((4-(4-acryloylpiperazin-1-yl)-7-(3-hydroxynaphthalen-1-yl)-5,6,7,8-tetrahydropyrido[3,4-d]pyrimidin-2-yl)amino)-N-(4-(3-(2,4-dihydroxy-5-isopropylphenyl)-5-hydroxy-4H-1,2,4-triazol-4-yl)benzyl)propanamide, trifluoroacetic acid] had an IC50 on HSP90a protein of 0.1 to 1 µM. Further, the EC50 in assay [1] was > 1 µM.
For `C=CC(=O)N1CCN(c2nc(NCCC(=O)N3CCC(CN4CCN(Cc5ccc(-n6c(O)nnc6-c6cc(CC)c(O)cc6O)cc5F)CC4)CC3)nc3c2CCN(c2cc(O)cc4ccccc24)C3)CC1` [Compound 8, 1-(4-(2-((3-(4-((4-(4-(3-(5-ethyl-2,4-dihydroxyphenyl)-5-hydroxy-4H-1,2,4-triazol-4-yl)-2-fluorobenzyl)piperazin-1-yl)methyl)piperidin-1-yl)-3-oxopropyl)amino)-7-(3-hydroxynaphthalen-1-yl)-5,6,7,8-tetrahydropyrido[3,4-d]pyrimidin-4-yl)piperazin-1-yl)prop-2-en-1-one, trifluoroacetic acid] the same measures were 0.1 to 1 µM and 0.1 to 1 µM.
For `C=CC(=O)N1CCN(C2CN(c3cc(O)cc4ccccc34)Cc3nc(NCCC(=O)NCCOCCOCCOc4ccc(-n5c(O)nnc5-c5cc(C(C)C)c(O)cc5O)cc4)ncc32)CC1` (centres unmarked) [Compound 9, 3-((5-(4-acryloylpiperazin-1-yl)-7-(3-hydroxynaphthalen-1-yl)-5,6,7,8-tetrahydropyrido[3,4-d]pyrimidin-2-yl)amino)-N-(2-(2-(2-(4-(3-(2,4-dihydroxy-5-isopropylphenyl)-5-hydroxy-4H-1,2,4-triazol-4-yl)phenoxy)ethoxy)ethoxy)ethyl)propanamide, trifluoroacetic acid], the IC50 on HSP90a protein is 0.1 to 1 µM. Also, the EC50 in assay [1] is > 1 µM.
On the same counts, the results for `C=CC(=O)N1CCN(c2nc(NCCC(=O)N3CCC(CN4CCC(Cc5ccc(-n6c(O)nnc6-c6cc(C(C)C)c(O)cc6O)cc5)CC4)CC3)nc3c2CCN(c2cc(O)cc4ccccc24)C3)CC1` [Compound 12, 1-(4-(2-((3-(4-((4-(4-(3-(2,4-dihydroxy-5-isopropylphenyl)-5-hydroxy-4H-1,2,4-triazol-4-yl)benzyl)piperidin-1-yl)methyl)piperidin-1-yl)-3-oxopropyl)amino)-7-(3-hydroxynaphthalen-1-yl)-5,6,7,8-tetrahydropyrido[3,4-d]pyrimidin-4-yl)piperazin-1-yl)prop-2-en-1-one, trifluoroacetic acid] are 0.1 to 1 µM and > 1 µM.
In turn, `C=CC(=O)N1CCN(c2nc(OC[C@@H]3C[C@H](C(=O)N4CCN(Cc5ccc(-n6c(C(=O)NCCN7CCN(S(C)(=O)=O)CC7)nnc6-c6cc(C(C)C)c(O)cc6O)cc5)CC4)CN3C)nc3c2CCN(c2cccc4cccc(Cl)c24)C3)C[C@@H]1CC#N` [Compound 344, 4-[4-({4-[(3S,5S)-5-({[7-(8-chloronaphthalen-1-yl)-4-[(3S)-3-(cyanomethyl)-4-(pr-op-2-enoyl)piperazin-1-yl]-5H,6H,8H-pyrido[3,4-d]pyrimidin-2-yl]oxy}methyl)-1-methylpyrrolidine-3-carbonyl]piperazin-1-yl}methyl)phenyl]-5-(2,4-dihydroxy-5-isopropylphenyl)-N-[2-(4-methanesulfonylpiperazin-1-yl)ethyl]-1,2,4-triazole-3-carboxamide] came in with an EC50 in assay [2] of 0.1 to 1 µM. Further, the IC50 at KRAS(G12C) and at HSP90a protein was < 0.1 µM in each case.
As to `C=CC(=O)N1CCN(c2nc(OC[C@@H]3C[C@H](C(=O)NCCc4ccc(-n5c(O)nnc5-c5cc(C(C)C)c(O)cc5O)cc4)CN3C)nc3c2CCN(c2cccc4cccc(Cl)c24)C3)C[C@@H]1CC#N` [Compound 345, (3S,5S)-5-({[7-(8-chloronaphthalen-1-yl)-4-[(3S)-3-(cyanomethyl)-4-(prop-2-enoyl)piperazin-1-yl]-5H,6H,8H-pyrido[3,4-d]pyrimidin-2-yl]oxy}methyl)-N-(2-{4-[3-(2,4-dihydroxy-5-isopropylphenyl)-5-hydroxy-1,2,4-triazol-4-yl]phenyl}ethyl)-1-methylpyrrolidine-3-carboxamide], the EC50 in assay [2] was in the range of 0.1 to 1 µM. Further, the IC50 at KRAS(G12C) and on HSP90a protein was < 0.1 µM throughout.
